According to patent publication US20030004172A1, “Fused pyrimidinone matrix metalloproteinase inhibitors” (priority 2001, published 2003):

Each compound was assayed against MMP-13CD (catalytic domain of collagenase-3) (Homo sapiens, UniProt P45452) (assay: Thiopeptolide substrate hydrolysis inhibition assay, MMP-13CD). Settings: Table I; thiopeptolide substrate, HEPES pH 7.0, 22° C.; read-out: MMP-13CD IC50.
Format: biochemical
Description: Thiopeptolide substrates show virtually no decomposition or hydrolysis at or below neutral pH in the absence of a matrix metalloproteinase enzyme.

| Compound | IC50 |
| --- | --- |
| 3-(4-Carboxy-benzyl)-1-methyl-2,4-dioxo-1,2,3,4-tetrahydro-thieno[2,3-d]pyrimidine-6-carboxylic acid 2-ethoxy-benzyl ester [Example 319] | 8 µM |
| 3-(4-Methoxycarboxyl-butyl)-1-methyl-2,4-dioxo-1,2,3,4-tetrahydro-thieno[2,3-d]pyrimidine-6-carboxylic acid benzyl ester [Example 141] | 0.15 µM |
| 3-Benzyl-1-methyl-2,4-dioxo-1,2,3,4-tetrahydro-thieno[2,3-d]pyrimidine-6-carboxylic acid 2,2,2-trifluoro-1-trifluoromethyl-ethyl ester [Example 168] | 25 µM |
| 3-Benzyl-1-methyl-2,4-dioxo-1,2,3,4-tetrahydro-thieno[2,3-d]pyrimidine-6-carboxylic acid ((S)-2,2-dimethyl-4-phenyl-1,3-dioxinan-5-yl)-amide [Example 341] | 14 µM |
| CC(=O)c1ccc(-n2c(=O)[nH]c3sc(C(=O)OCc4ccccc4)c(C)c3c2=O)cc1 [Example 6, 3-(4-Acetyl-phenyl)-5-methyl-2,4 dioxo-1,2,3,4-tetrahydro-thieno[2,3-d]-pyrimidine-6-carboxylic acid benzyl ester] | > 100 µM |
| Cc1c(C(=O)OCc2ccccc2)sc2[nH]c(=O)n(-c3ccc([N+](=O)[O-])cc3)c(=O)c12 [Example 8, 5-Methyl-3-(4-nitro-phenyl)-2,4-dioxo-1,2,3,4-tetrahydro-thieno[2,3-d]-6-carboxylic acid benzyl ester] | 15 µM |
| O=C(OCc1ccc2c(c1)OCO2)c1cc2c(=O)n(Cc3ccccc3)c(=O)[nH]c2s1 [Example 10, 3-Benzyl-2,4-dioxo-1,2,3,4-tetrahydro-thieno[2,3-d]pyrimidine-6-carboxylic acid 1,3-benzodioxol-5-ylmethyl ester] | 0.068 µM |
| Cn1c(=O)n(Cc2ccccc2)c(=O)c2cc(C(=O)NCc3ccccc3)sc21 [Example 11, 3-Benzyl-1-methyl-2,4-dioxo-1,2,3,4-tetrahydro-thieno[2,3-d]pyrimidine-6-carboxylic acid benzyl amide] | 0.47 µM |
| O=C(OCCc1ccccc1)c1cc2c(=O)n(Cc3ccccc3)c(=O)[nH]c2s1 [Example 12, 3-Benzyl-2,4-dioxo-1,2,3,4-tetrahydro-thieno[2,3-d]pyrimidine-6-carboxylic acid 2-phenylethyl ester] | > 100 µM |
| O=C(OCc1ccoc1)c1cc2c(=O)n(Cc3ccccc3)c(=O)[nH]c2s1 [Example 13, 3-Benzyl-2,4-dioxo-1,2,3,4-tetrahydro-thieno[2,3-d]pyrimidine-6-carboxylic acid furan-3-ylmethyl ester] | 18 µM |
| Cn1c(=O)n(Cc2ccccc2)c(=O)c2cc(C(=O)OCc3cc4ccccc4o3)sc21 [Example 48, 3-Benzyl-1-methyl-2,4-dioxo-1,2,3,4-tetrahydro-thieno[2,3-d]pyrimidine-6-carboxylic acid benzofuran-2-ylmethyl ester] | 1.45 µM |
| COc1ccc(COC(=O)c2cc3c(=O)n(Cc4ccccc4)c(=O)[nH]c3s2)cc1 [Example 50, 3-Benzyl-2,4-dioxo-1,2,3,4-tetrahydro-thieno[2,3-d]pyrimidine-6-carboxylic acid 4-methoxy-benzyl ester] | 0.0875 µM |
| Cn1c(=O)n(Cc2ccc(C(=O)O)cc2)c(=O)c2cc(C(=O)NCc3ccncc3)sc21 [Example 51, 4-{1-Methyl-2,4-dioxo-6-[(pyridin-4-ylmethyl)-carbamoyl]-1,4-dihydro-2H-thieno[2,3-d]pyrimidin-3-ylmethyl}-benzoic acid; compound with trifluoro-acetic acid] | 0.0205 µM |

Same assay, conditions: Table II; micromolar concentration; HEPES pH 7.0; read-out: IC50 MMP-13CD

| Compound | IC50 |
| --- | --- |
| C=Cc1ccc(Cn2c(=O)c3cc(C(=O)OCc4ccccc4)sc3n(C)c2=O)cc1 [Example 20, 1-Methyl-2,4-dioxo-3-(4-vinyl-benzyl)-1,2,3,4-tetrahydro-thieno[2,3-d]pyrimidine-6-carboxylic acid benzyl ester] | 0.0065 µM |
